Test results taken from the NIST ThermoML archive (doi:10.1016/j.jct.2012.12.014).

Assay: mn = molality of the nth substance listed, in mol/kg
Conditions: 298.15 K, 101 kPa, Liquid, Vibrating tube method

Nc1cc[nH]c(=O)n1 [4-amino-2-hydroxypyrimidine] + O
Conditions | mass density [kg/m3]
m1 = 0.02193 | 997.872
m1 = 0.02698 | 998.062
m1 = 0.03192 | 998.246
m1 = 0.03702 | 998.438
m1 = 0.04187 | 998.618
m1 = 0.04604 | 998.777
m1 = 0.05099 | 998.96
m1 = 0.05598 | 999.144
m1 = 0.06284 | 999.402
